Experiments:
Format in all cases: cell-based, human
[1] = tested on: Tet-induction iPS cells expressing HSVtk; test: Cell death of Tet-induction iPS cells expressing HSVtk on adding Dox and GCV to the medium; conditions: 1 μg/ml doxycycline (Dox) and 1 μg/ml GCV added to the medium
Source text: Human iPS cells were infected with the CSIV-HSV1tk-TRE-EF-KT lentiviral vector at an MOI of 2.5 to 10 and cultured. The clones were then sorted with the cell sorter to obtain an iPS cell line expressing hKO1 steadily and highly.

NS/PCs expressing HSVtk = test: Cell death of NS/PCs expressing HSVtk on adding ganciclovir to the medium; conditions: 1 μg/ml ganciclovir (GCV) added to the medium
Source text: Secondary or tertiary NS/PCs differentiation-induced from human iPS cells were collected with the centrifuge and disassembled into single cells using TrypLE Select. The single cells were suspended in NS medium, inoculated into a low adhesive flask at a concentration of 1×10^5 cells/ml, infected with the CSIV-EF-HSV1tk-IRES2-hKO1 lentiviral vector at an MOI (multiplicity of infection) of 0.5 to 1, and cultured for 7 days with the medium replaced every 3 to 4 days. The obtained NS/PCs were infected with the CSIV-EF-HSV1tk-IRES2-hKO1 lentiviral vector at an MOI of 0.5 to 1 in the same way again to prepare therapeutic stem cells (TSCs), that is, NS/PCs expressing HSVtk.

[2] = tested on: Tet-induction NS/PCs expressing HSVtk; test: Cell death of Tet-induction NS/PCs expressing HSVtk on adding Dox and GCV to the medium; conditions: 1 μg/ml doxycycline (Dox) and 1 μg/ml GCV added to the medium
Source text: Tet-induced iPS cells expressing HSVtk were differentiation-induced into NS/PCs to obtain secondary and tertiary Tet-induced NS/PCs expressing HSVtk.

Nc1nc(O)c2ncn(COC(CO)CO)c2n1 [GCV, ganciclovir]
cell death of Tet-induction iPS cells expressing HSVtk [1]: cell death of Tet-induction iPS cells expressing HSVtk was induced | cell death of NS/PCs expressing HSVtk (NS/PCs expressing HSVtk): cell death of the NS/PCs expressing HSVtk was induced | cell death of Tet-induction NS/PCs expressing HSVtk [2]: cell death of these Tet-induction NS/PCs expressing HSVtk was also induced

Source: patent US20210128639A1, “CELL PREPARATION FOR TREATING BRAIN TUMOR” (priority 2017, published 2021)
